Source: paper PMC7495481, “Sequence specificity analysis of the SETD2 protein lysine methyltransferase and discovery of a SETD2 super-substrate” (Communications Biology, 2020)
Where “and” joins values, the source holds several entries; their conditions need not be identical. Equal entries are not always repeated.

Tests used:
SETD2 [1] = molecular target: T1, SETD2 (Homo sapiens, UniProt Q9BYW2); assay: Time courses of methylation of ssK36 and H3K36 compared (initial slopes); assay type: biochemical; details: 20 µM substrate, 6 µM enzyme; two experiments, average ± SEM
T1 construct: SETD2 catalytic SET domain (amino acids 1347–1711, UniProt No: Q9BYW2); made in house; host or cells: E. coli
T1 sequence (Q9BYW2 1347-1711): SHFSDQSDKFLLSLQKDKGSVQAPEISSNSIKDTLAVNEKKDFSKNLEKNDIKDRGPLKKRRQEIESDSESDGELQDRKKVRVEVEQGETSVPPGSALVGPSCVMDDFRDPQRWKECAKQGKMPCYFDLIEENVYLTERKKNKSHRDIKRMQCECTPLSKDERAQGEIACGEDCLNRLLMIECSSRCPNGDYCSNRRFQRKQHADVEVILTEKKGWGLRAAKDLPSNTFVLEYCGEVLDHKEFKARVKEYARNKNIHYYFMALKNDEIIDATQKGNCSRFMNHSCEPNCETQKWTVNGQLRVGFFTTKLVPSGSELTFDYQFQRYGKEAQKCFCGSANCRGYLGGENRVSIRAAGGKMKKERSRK
Description: Fig. 2 Design of an optimized SETD2 peptide substrate and analysis of its methylation. a Variants of the H3K36 (29–43) peptide containing up to five mutations (Supplementary Table 1) were synthesized on a cellulose membrane and methylated by SETD2. The signal of the transferred radioactive methyl groups was detected by autoradiography. Spots A1 and B15 contain the H3K36 sequence, A2 and B16 the H3K36A peptide. Two films with different exposure times are shown to visualize weaker methylated spots as well. b Comparison of the methylation of purified super-substrate (ssK36) and the H3K36 peptides. […] Methylation reactions were conducted using 20 µM peptide and 6 µM enzyme. […]
The H3K36 (27–43) and the H3K36M (27–43) peptides were purchased from Intavis AG (Köln, Germany) and the ssK36 peptide (29–43) and the ssK36M peptide (29–43) were from Innovative Peptide Solutions (Berlin, Germany). […] The signals of the transferred radioactive labeled methyl groups were detected by autoradiography using a hyperfilm^TM high performance autoradiography film (GE Healthcare) at −80 °C in the dark. […]
Time courses of ssK36 methylation were analyzed by fitting to an exponential reaction progress curve (Eq. 1). Initial rates of single turnover reactions were determined using the first derivative of eq. […]

SETD2 [2] = molecular target: T1, SETD2; assay: Peptide SPOT array target lysine methylation of selected non-histone peptides (Fig. 3b); assay type: biochemical; details: Exp1–Exp3, 3–6 µM SETD2, 0.76 µM AdoMet, 60 min, pH 9, listed as DS
Description: However, we could identify 166 possible targets, which contain partial matches to the substrate specificity profile. The possible methylation of these 166 putative substrates was investigated at the peptide level. For this, fifteen amino acid long peptides containing the sequence of the non-histone targets surrounding the predicted target lysine were synthesized on a membrane. The H3K36 (29–43) peptide (spots A1, I9), the super-substrate peptide (spots A3, I11) and the corresponding lysine to alanine mutation peptides (spot A2, I10, and A4, I12) were included as positive and negative controls (Fig. 3a, Supplementary Fig. 4 and Supplementary Table 2). The methylation reactions and the detection of the methylation signals were performed in duplicates as described above. We observed that all of the investigated peptides were more weakly methylated than the super-substrate peptide. […] In the next step, 20 of the peptides were selected for further investigation based on the methylation intensity and the known functions of the proteins to confirm the methylation at the predicted target site. The peptides were synthesized on another membrane, now including the target lysine to alanine mutation control peptides in each case. The methylation reactions and the detection of the signal were conducted as described above (Fig. 3b, Supplementary Fig. 5 and Supplementary Table 3).
Fig. 3 Identification of non-histone substrates of SETD2. a Candidate non-histone peptide substrates were identified in the human proteome based on the SETD2 super-substrate specificity profile. The peptides were synthesized on a peptide SPOT array (Supplementary Table 2) and methylated by SETD2. As controls, the H3K36, H3K36A, ssK36 and ssK36A peptides were included on spots A1–A4 and I9–I12. The autoradiography image is an example of the obtained results. […] The quantification of the data of two experiments is shown in Supplementary Fig. 4. b Analysis of target lysine methylation of selected non-histone substrate peptides. Peptide SPOT arrays were synthesized containing the non-histone peptide substrates identified in panel A in addition to the lysine to alanine mutations presented on the array as every second spot (Supplementary Table 3). As controls, the H3K36, H3K36A, ssK36, and ssK36A mutant peptides were included on spot A1–A4 and C5–C8. The autoradiography image is an example of the obtained results. The quantification of the data of three experiments is shown in Supplementary Fig. 5. Peptides selected for furhter analysis are highlighted by blue circles. c Protein methylation of FBN1 and confirmation of the target lysine methylation. Both wild type (WT) and mutant (K666R) FBN1 were purified and equal amounts were methylated by SETD2 (2 µM). […] The size of FBN1 is indicated by an asterisk.
Peptide arrays containing fifteen amino acid long peptides were synthesized using the SPOT synthesis method[48] with an Autospot peptide array synthesizer (Intavis AG, Köln, Germany). After synthesis, the obtained membranes were pre-incubated in methylation buffer (20 mM Tris/HCl pH 9, 0.01% Triton X-100, 10 mM DTT, 1.5 mM MgCl2) for 5 min on a shaker. Thereafter, the membranes were incubated in methylation buffer supplemented with 0.76 µM radioactively labeled AdoMet (PerkinElmer) and 3–6 µM SETD2 enzyme for 60 min on a shaker. After methylation, the membranes were washed 5 times for 5 min in wash buffer (100 mM NH4HCO3, 1% SDS) and incubated in amplify NAMP100V (GE Healthcare) for 5 min. This was followed by the exposure of the membranes to a hyperfilm^TM high performance autoradiography (GE Healthcare) film at −80 °C in the dark. The films were developed with an Optimax Typ TR machine after different exposue times. For quantification the signal intensities were measured with the Phoretix^TM software and analyzed with Microsoft Excel.

APRFGGVKRPNRYRP [ssK36, super-substrate peptide with four amino acid exchanges (A31R, T32F, K37R, H39N)]
fold higher initial slope for ssK36 methylation vs H3K36 (SETD2 [1]): 290 ± 70 fold
Relative methylation signal, Average (SETD2 [2]): 0.95 and 0.9901
